Source: article PMC11087268, “A folate inhibitor exploits metabolic differences in Pseudomonas aeruginosa for narrow-spectrum targeting” (Nature Microbiology, 2024)

Assays:
Escherichia coli MG1655 = assay: MIC against E. coli MG1655 in LB broth; type: cell-based; details: 16 h, 37 °C, OD600
Description: (§1) Overnight cultures were diluted 1:150 in LB broth and added to a 96-well plate. Antibiotics were serially diluted 1:2 and added to columns of the 96-well plate and grown at 37 °C with continuous shaking. Cell growth was measured using optical density at 600 nm (OD600). MIC assays were performed in either BioTek Synergy HT or Tecan InfiniteM200 Pro microplate readers.

[1] = tested on: P. aeruginosa PA14 mexS L46F mutant; assay: MIC against fluorofolin-resistant PA14 mexS L46F mutant; type: cell-based; details: Pseudomonas aeruginosa
Description: as §1
Single colonies were picked and inoculated into fresh LB broth. This process was repeated for a total of ten passages. At each passage, the MIC was recalculated and compared to a culture that had not been previously exposed to fluorofolin, which was also grown as a control to confirm antibiotic potency. Cells from each passage were stored as a frozen stock.

[2] = Serum (plasma protein) binding; type: in vitro ADME
Description: An initial t = 0 sample was collected. […] Serum binding parameters were determined as follows: • % Bound = 100% − % Unbound • logK = log(% Bound/100 − % Bound) • % Remaining = Area-ratio6h/Area-ratio0h × 100% • % Recovery was determined as (Area-ratiobuffer-chamber + Area-ratioplasma-chamber)/(Area-ratiototal sample) × 100

S. epidermidis = assay: Growth with or without TMI supplementation and fluorofolin, S. epidermidis; type: cell-based, Staphylococcus epidermidis; details: fluorofolin 2X MIC
Description: Where listed, growth media were prepared according manufacturer recommendations: LB broth and LB broth supplemented with 0.3 mM thymine (BD Biosciences 244610, Alfa Aesar A15879), 0.3 mM methionine (Sigma-Aldrich M9625), 0.3 mM inosine (EMD Millipore 4060), cation-adjusted Mueller–Hinton II broth (CAMHB) (BD 212322) or 0.3 mM thymidine (Sigma-Aldrich T1895), Gutnick minimal media (1.0 g l^−1 K2SO4, 13.5 g l^−1 K2HPO4, 4.7 g l^−1 KH2PO4, 0.1 g l^−1 MgSO4·7H2O, 10 mM NH4Cl as a nitrogen source and 0.4% w/v glucose as a carbon source)[65].
Extended Data Fig. 3 TMI supplementation can also rescue other species from fluorofolin DHFR inhibition. […] (f) P. aeruginosa PA14 or E. coli lptd4213 treated with fluorofolin 50 μg/mL in the presence or absence of 0.3 mM thymidine. (g) E. coli lptd4213 treated with fluorofolin 50 μg/mL and SMX (78.1 μg/mL) in the presence or absence of 0.3 mM thymidine or 0.3 mM TMI supplementation, Curves represent average optical at 600 nm (OD600) of 2 biological replicates. Means are shown. Source data

E. coli MG1655 = assay: Growth of E. coli MG1655 in TMI-supplemented media with fluorofolin; type: cell-based, Escherichia coli; details: for OD600 of E. coli MG1655: Fluorofolin + TMI
[3] = mouse plasma, 1 μM, 6 h, dialysis

Nc1nc(N)c2c(ccc3c2ccn3Cc2ccnc(F)c2)n1 [fluorofolin]
MIC (Escherichia coli MG1655): 0.625 µg/mL
MIC [1]: 62.5 µg/mL
% Bound [2, 3]: 71.7000%
% Recovery [2, 3]: 91.8800%
% Unbound [2, 3]: 28.3000%
fraction unbound at 6 h, 1 μM ([2]; mouse plasma, 1 μM, 6 h, dialysis, read-out: % Bound (converted)): 0.283
LogK ([2]; mouse plasma, log(% Bound/(100 − % Bound))): 0.4000
recovery at 6 h, 1 μM ([2]; mouse, 1 μM, 6 h, dialysis): 91.9%
remaining at 6 h, 1 μM ([2]; mouse, read-out: % Remaining after 6 hours): 89.7%
rescue of growth inhibition by TMI supplementation (S. epidermidis): could also be rescued from fluorofolin growth inhibition by TMI supplementation
rescue of growth inhibition by TMI supplementation (E. coli MG1655; E. coli MG1655, 0.3 mM TMI, fluorofolin 2× MIC): could also be rescued with TMI supplementation
OD600 of E. coli MG1655 (E. coli MG1655; Time 10 min): 0.007
OD600 of E. coli MG1655 (E. coli MG1655; Time 70 min): 0.0105
OD600 of E. coli MG1655 (E. coli MG1655; Time 80 min): 0.012
OD600 of E. coli MG1655 (E. coli MG1655; Time 90 min): 0.0135
OD600 of E. coli MG1655 (E. coli MG1655; Time 100 min): 0.015
OD600 of E. coli MG1655 (E. coli MG1655; Time 110 min): 0.0175
OD600 of E. coli MG1655 (E. coli MG1655; Time 120 min): 0.0195
OD600 of E. coli MG1655 (E. coli MG1655; Time 130 min): 0.0225
OD600 of E. coli MG1655 (E. coli MG1655; Time 140 min): 0.025
OD600 of E. coli MG1655 (E. coli MG1655; Time 150 min): 0.028
OD600 of E. coli MG1655 (E. coli MG1655; Time 160 min): 0.0305
OD600 of E. coli MG1655 (E. coli MG1655; Time 170 min): 0.0345
OD600 of E. coli MG1655 (E. coli MG1655; Time 180 min): 0.038
OD600 of E. coli MG1655 (E. coli MG1655; Time 190 min): 0.042
OD600 of E. coli MG1655 (E. coli MG1655; Time 200 min): 0.0465
OD600 of E. coli MG1655 (E. coli MG1655; Time 210 min): 0.052
OD600 of E. coli MG1655 (E. coli MG1655; Time 220 min): 0.0575
OD600 of E. coli MG1655 (E. coli MG1655; Time 230 min): 0.0625
OD600 of E. coli MG1655 (E. coli MG1655; Time 240 min): 0.068
OD600 of E. coli MG1655 (E. coli MG1655; Time 250 min): 0.0745
OD600 of E. coli MG1655 (E. coli MG1655; Time 260 min): 0.0815
OD600 of E. coli MG1655 (E. coli MG1655; Time 270 min): 0.0875
OD600 of E. coli MG1655 (E. coli MG1655; Time 280 min): 0.094
OD600 of E. coli MG1655 (E. coli MG1655; Time 290 min): 0.1
OD600 of E. coli MG1655 (E. coli MG1655; Time 300 min): 0.105
OD600 of E. coli MG1655 (E. coli MG1655; Time 310 min): 0.1105
OD600 of E. coli MG1655 (E. coli MG1655; Time 320 min): 0.1155
OD600 of E. coli MG1655 (E. coli MG1655; Time 330 min): 0.1215
OD600 of E. coli MG1655 (E. coli MG1655; Time 340 min): 0.1265
OD600 of E. coli MG1655 (E. coli MG1655; Time 350 min): 0.132
OD600 of E. coli MG1655 (E. coli MG1655; Time 360 min): 0.136
OD600 of E. coli MG1655 (E. coli MG1655; Time 370 min): 0.14
OD600 of E. coli MG1655 (E. coli MG1655; Time 380 min): 0.1435
OD600 of E. coli MG1655 (E. coli MG1655; Time 390 min): 0.147
OD600 of E. coli MG1655 (E. coli MG1655; Time 400 min): 0.151
OD600 of E. coli MG1655 (E. coli MG1655; Time 410 min): 0.155
OD600 of E. coli MG1655 (E. coli MG1655; Time 420 min): 0.1585
OD600 of E. coli MG1655 (E. coli MG1655; Time 430 min): 0.163
OD600 of E. coli MG1655 (E. coli MG1655; Time 440 min): 0.167
OD600 of E. coli MG1655 (E. coli MG1655; Time 450 min): 0.1715
OD600 of E. coli MG1655 (E. coli MG1655; Time 460 min): 0.176
OD600 of E. coli MG1655 (E. coli MG1655; Time 470 min): 0.181
OD600 of E. coli MG1655 (E. coli MG1655; Time 480 min): 0.1855
OD600 of E. coli MG1655 (E. coli MG1655; Time 490 min): 0.19
